Reference: ChEMBL document CHEMBL1128593, “Chemistry and antimicrobial activity of caryoynencins analogs” (1995)
≈ marks a conversion by molar mass, not a printed value.

Assays:
[1] = system: Aspergillus fumigatus; assay: Antimicrobial activity of the Compound was tested for minimum inhibitory concentration against Aspergillus fumigatus 10569; format: functional
[2] = system: Bacillus subtilis; assay: Antimicrobial activity of the Compound was tested for minimum inhibitory concentration against Bacillus subtilis ATCC 6633; format: functional
[3] = system: Candida albicans; assay: Antimicrobial activity of the Compound was tested for minimum inhibitory concentration against Candida albicans SC; format: functional
[4] = system: Candida albicans; assay: Antimicrobial activity of the Compound was tested for minimum inhibitory concentration against Candida albicans; format: functional
[5] = system: Cryptococcus neoformans; assay: Antimicrobial activity of the Compound was tested for minimum inhibitory concentration against Cryptococcus neoformans 58063; format: functional
[6] = system: Enterobacter cloacae; assay: Antimicrobial activity of the Compound was tested for minimum inhibitory concentration against Enterobacter cloacae 963; format: functional
[7] = system: Escherichia coli; assay: Antimicrobial activity of the Compound was tested for minimum inhibitory concentration against Escherichia coli 609; format: functional
[8] = system: Escherichia coli; assay: Antimicrobial activity of the Compound was tested for minimum inhibitory concentration against Escherichia coli NIHJ; format: functional
[9] = system: Enterococcus faecalis; assay: Antimicrobial activity of the Compound was tested for minimum inhibitory concentration against Enterococcus faecalis 681; format: functional
[10] = system: Klebsiella pneumoniae; assay: Antimicrobial activity of the Compound was tested for minimum inhibitory concentration against Klebsiella pneumoniae 806; format: functional
[11] = system: Klebsiella pneumoniae; assay: Antimicrobial activity of the Compound was tested for minimum inhibitory concentration against Klebsiella pneumoniae 846(R); format: functional
[12] = system: Nannizzia gypsea; assay: Antimicrobial activity of the Compound was tested for minimum inhibitory concentration against Microsporum gypseum 11268; format: functional
[13] = system: Mucor mucedo; assay: Antimicrobial activity of the Compound was tested for minimum inhibitory concentration against Mucor mucedo 14358; format: functional
[14] = system: Proteus vulgaris; assay: Antimicrobial activity of the Compound was tested for minimum inhibitory concentration against Proteus vulgaris 1420; format: functional
[15] = system: Pseudomonas aeruginosa; assay: Antimicrobial activity of the Compound was tested for minimum inhibitory concentration against Pseudomonas aeruginosa 1001; format: functional
[16] = system: Shigella flexneri; assay: Antimicrobial activity of the Compound was tested for minimum inhibitory concentration against Shigella flexneriII D642; format: functional
[17] = system: Salmonella enteritidis; assay: Antimicrobial activity of the Compound was tested for minimum inhibitory concentration against Salmonella enteritidis; format: functional, Salmonella enterica subsp. enterica serovar Enteritidis; details: Salmonella enterica
[18] = system: Staphylococcus aureus; assay: Antimicrobial activity of the Compound was tested for minimum inhibitory concentration against Staphylococcus aureus 535 (MRSA); format: functional
[19] = system: Staphylococcus aureus; assay: Antimicrobial activity of the Compound was tested for minimum inhibitory concentration against Staphylococcus aureus 56R; format: functional
[20] = system: Staphylococcus aureus; assay: Antimicrobial activity of the Compound was tested for minimum inhibitory concentration against Staphylococcus aureus 209P; format: functional
[21] = system: Serratia marcescens; assay: Antimicrobial activity of the Compound was tested for minimum inhibitory concentration against Serratia marcescens 1184; format: functional
[22] = system: Trichophyton rubrum; assay: Antimicrobial activity of the Compound was tested for minimum inhibitory concentration against Trichophyton rubrum; format: functional
[23] = system: Trichophyton rubrum; assay: Antimicrobial activity of the Compound was tested for minimum inhibitory concentration against Trichophyton rubrum SC; format: functional
[24] = system: Trichophyton benhamiae; assay: Antimicrobial activity of the Compound was tested for minimum inhibitory concentration against Trichophyton mentagrophytes SC; format: functional, Arthroderma benhamiae
[25] = system: Trichophyton benhamiae; assay: Antimicrobial activity of the Compound was tested for minimum inhibitory concentration against Trichophyton mentagrophytes; format: functional, Arthroderma benhamiae
[26] = system: Trichophyton interdigitale; assay: Antimicrobial activity of the Compound was tested for minimum inhibitory concentration against Trichophyton interdigitale; format: functional
[27] = system: Pseudomonas aeruginosa; assay: Antimicrobial activity of the Compound was tested for minimum inhibitory concentration against Pseudomonas aeruginosa N07; format: functional
[28] = system: Shigella flexneri; assay: Antimicrobial activity of the Compound was tested for minimum inhibitory concentration against Shigella flexneri IID642; format: functional

MIC [2]	MIC [4]	MIC [6]	MIC [7]	MIC [8]	MIC [9]	MIC [10]	MIC [11]	MIC [14]	MIC [15]	MIC [16]	MIC [17]	MIC [18]	MIC [19]	MIC [20]	MIC [21]	MIC [22]	MIC [25]	MIC [26]	MIC [27]	SMILES	other results
0.4 µg/mL (≈ 2.06 µM)	3.1 µg/mL (≈ 16 µM)	> 25 µg/mL	> 25 µg/mL	> 25 µg/mL	3.1 µg/mL (≈ 16 µM)	> 25 µg/mL	> 25 µg/mL	0.8 µg/mL (≈ 4.12 µM)	> 25 µg/mL	0.8 µg/mL (≈ 4.12 µM)	> 25 µg/mL	0.2 µg/mL (≈ 1.03 µM)	0.2 µg/mL (≈ 1.03 µM)	0.2 µg/mL (≈ 1.03 µM)	> 25 µg/mL	< 0.1 µg/mL	< 0.1 µg/mL	< 0.1 µg/mL	> 25 µg/mL	C#CC#CC#CC#CC(O)/C=C/C=C/C (configuration not stated)	MIC [1]: 1.5 µg/mL (≈ 7.72 µM); MIC [3]: 3.1 µg/mL (≈ 16 µM); MIC [5]: 0.8 µg/mL (≈ 4.12 µM); MIC [12]: 0.4 µg/mL (≈ 2.06 µM); MIC [13]: 0.2 µg/mL (≈ 1.03 µM); MIC [23]: < 0.02 µg/mL; MIC [24]: < 0.02 µg/mL
0.8 µg/mL (≈ 4.12 µM)	1.5 µg/mL (≈ 7.72 µM)	> 25 µg/mL	0.8 µg/mL (≈ 4.12 µM)	0.8 µg/mL (≈ 4.12 µM)	3.1 µg/mL (≈ 16 µM)	1.5 µg/mL (≈ 7.72 µM)	0.8 µg/mL (≈ 4.12 µM)	0.8 µg/mL (≈ 4.12 µM)	> 25 µg/mL	0.8 µg/mL (≈ 4.12 µM)	0.8 µg/mL (≈ 4.12 µM)	0.2 µg/mL (≈ 1.03 µM)	0.2 µg/mL (≈ 1.03 µM)	0.2 µg/mL (≈ 1.03 µM)	0.8 µg/mL (≈ 4.12 µM)	0.2 µg/mL (≈ 1.03 µM)	–	0.8 µg/mL (≈ 4.12 µM)	> 25 µg/mL	C#CC#CC#CC#C/C=C/C=C/C(C)O (racemic)	–
0.8 µg/mL (≈ 4.12 µM)	0.8 µg/mL (≈ 4.12 µM)	> 12.5 µg/mL	1.5 µg/mL (≈ 7.72 µM)	0.8 µg/mL (≈ 4.12 µM)	3.1 µg/mL (≈ 16 µM)	3.1 µg/mL (≈ 16 µM)	0.8 µg/mL (≈ 4.12 µM)	0.8 µg/mL (≈ 4.12 µM)	> 12.5 µg/mL	0.4 µg/mL (≈ 2.06 µM)	0.8 µg/mL (≈ 4.12 µM)	0.1 µg/mL (≈ 0.515 µM)	0.2 µg/mL (≈ 1.03 µM)	0.2 µg/mL (≈ 1.03 µM)	0.8 µg/mL (≈ 4.12 µM)	0.2 µg/mL (≈ 1.03 µM)	0.2 µg/mL (≈ 1.03 µM)	0.2 µg/mL (≈ 1.03 µM)	> 12.5 µg/mL	C#CC#CC#CC#C/C=C/C=C/[C@@H](C)O	–
6.2 µg/mL (≈ 31.6 µM)	6.2 µg/mL (≈ 31.6 µM)	> 25 µg/mL	> 25 µg/mL	25 µg/mL (≈ 127 µM)	12.5 µg/mL (≈ 63.7 µM)	> 25 µg/mL	12.5 µg/mL (≈ 63.7 µM)	3.1 µg/mL (≈ 15.8 µM)	> 25 µg/mL	6.2 µg/mL (≈ 31.6 µM)	25 µg/mL (≈ 127 µM)	0.8 µg/mL (≈ 4.08 µM)	1.5 µg/mL (≈ 7.64 µM)	1.5 µg/mL (≈ 7.64 µM)	> 25 µg/mL	0.8 µg/mL (≈ 4.08 µM)	–	1.5 µg/mL (≈ 7.64 µM)	> 25 µg/mL	C#CC#CC#CC#CC1(O)CCCCC1	–
0.8 µg/mL (≈ 4.12 µM)	1.5 µg/mL (≈ 7.72 µM)	> 25 µg/mL	3.1 µg/mL (≈ 16 µM)	1.5 µg/mL (≈ 7.72 µM)	6.2 µg/mL (≈ 31.9 µM)	> 25 µg/mL	3.1 µg/mL (≈ 16 µM)	1.5 µg/mL (≈ 7.72 µM)	> 25 µg/mL	0.8 µg/mL (≈ 4.12 µM)	3.1 µg/mL (≈ 16 µM)	0.2 µg/mL (≈ 1.03 µM)	0.2 µg/mL (≈ 1.03 µM)	0.2 µg/mL (≈ 1.03 µM)	1.5 µg/mL (≈ 7.72 µM)	0.2 µg/mL (≈ 1.03 µM)	0.4 µg/mL (≈ 2.06 µM)	0.4 µg/mL (≈ 2.06 µM)	> 25 µg/mL	C#CC#CC#CC#C/C=C/C=C/[C@H](C)O	–
12.5 µg/mL (≈ 73.4 µM)	1.5 µg/mL (≈ 8.81 µM)	> 50 µg/mL	25 µg/mL (≈ 147 µM)	25 µg/mL (≈ 147 µM)	12.5 µg/mL (≈ 73.4 µM)	> 50 µg/mL	12.5 µg/mL (≈ 73.4 µM)	12.5 µg/mL (≈ 73.4 µM)	> 50 µg/mL	–	25 µg/mL (≈ 147 µM)	0.8 µg/mL (≈ 4.7 µM)	0.8 µg/mL (≈ 4.7 µM)	0.8 µg/mL (≈ 4.7 µM)	> 50 µg/mL	0.4 µg/mL (≈ 2.35 µM)	0.8 µg/mL (≈ 4.7 µM)	0.8 µg/mL (≈ 4.7 µM)	> 50 µg/mL	C#CC#CC#C/C=C/C=C/C(C)O (configuration not stated)	MIC [1]: 6.2 µg/mL (≈ 36.4 µM); MIC [3]: 1.5 µg/mL (≈ 8.81 µM); MIC [5]: 1.5 µg/mL (≈ 8.81 µM); MIC [12]: 0.8 µg/mL (≈ 4.7 µM); MIC [13]: 6.2 µg/mL (≈ 36.4 µM); MIC [28]: 6.2 µg/mL (≈ 36.4 µM); MIC [23]: 0.4 µg/mL (≈ 2.35 µM); MIC [24]: 0.4 µg/mL (≈ 2.35 µM)
